Assay results: US10827758B2, “Relating to water treatment” (BWA WATER ADDITIVES UK LIMITED, priority 2014, dated 2020)

Assays:
Enterobacter aerogenes = experiment: Log 10 Reduction of facultative anaerobic bacterium in dosed bacterial suspension (serial dilution into anaerobic acid producing media vials); type: cell-based; settings: TDS 30,000 mg l^-1, ppm dose per Example, 8 = complete kill
Description: (§1) A suspension of Desulfovibrio vulgaris plus Enterobacter aerogenes bacteria containing from 1×10^6 to 1×10^8 cells/mL was prepared in sterile pH 8 phosphate buffer containing varying levels of sodium chloride to give the desired total dissolved solids (TDS) concentration. Aliquots of this suspension were dosed with the indicated concentrations of the phosphonium compound (a) and stabilised halogen containing composition (b) with the concentrations being measured as ppm by weight of the stated composition in the dosed suspension. The mixtures were allowed to stand at room temperature. At the designated contact times, each mixture was sampled to determine the total number of viable cells of both Desulfovibrio vulgaris and Enterobacter aerogenes by serial 10-fold dilution into API RP 38 media vials and anaerobic acid producing media vials, respectively. The vials were incubated at 37° C. for 72 hours. Results were recorded as cells per millilitre.
(§2) Aqueous media inoculated with anaerobe and aerobe culture and having a TDS of 30,000 mg l^−1 was treated with treatment agents comprising: (i) stabilised halogen containing composition; (ii) tri n-butyl n-tetradecyl phosphonium chloride (TTPC) or (iii) a combination of stabilised halogen containing composition and TTPC.
(§3) The efficacy of the treatment agents was evaluated by measuring the Log 10 Reduction of the anaerobic bacterium Desulfovibrio vulgaris and the facultative anaerobeic bacterium Enterobacter aerogenes after contact times of 1 hour, 4 hours and 24 hours as detailed in Table 1. For TTPC the stated ppm value relates to the amount of TTPC added (active). For the stabilised bromine composition the stated ppm relates to the amount of Bromax 7.1 added (product)
(§4) A Log 10 reduction of 6 represents a complete kill for anaerobes and a Log 10 reduction of 8 represents a complete kill for facultative anaerobes.

Desulfovibrio vulgaris = experiment: Log 10 Reduction of anaerobic bacterium in dosed bacterial suspension (serial dilution into API RP 38 media vials); type: cell-based; settings: TDS 30,000 mg l^-1, ppm dose per Example, 6 = complete kill
Description: as §1, §2, §3, §4

SMILES	Log10 Reduction Facultative Anaerobes (Enterobacter aerogenes; contact time 1 hour)	Log10 Reduction Anaerobes (Desulfovibrio vulgaris; contact time 1 hour)	Log10 Reduction Facultative Anaerobes (Enterobacter aerogenes; contact time 24 hours)	Log10 Reduction Anaerobes (Desulfovibrio vulgaris; contact time 24 hours)	other results
CCCCCCCCCCCCCC[P+](CCCC)(CCCC)CCCC.[Cl-] [Example 1, tri n-butyl n-tetradecyl phosphonium chloride]	1	3	–	–	–
CCCCCCCCCCCCCC[P+](CCCC)(CCCC)CCCC.[Cl-] [Example 2, tri n-butyl n-tetradecyl phosphonium chloride]	4	6	–	–	–
CCCCCCCCCCCCCC[P+](CCCC)(CCCC)CCCC.[Cl-] [Example 9, tri n-butyl n-tetradecyl phosphonium chloride]	–	–	–	–	Log10 Reduction Facultative Anaerobes (Enterobacter aerogenes; contact time 4 hours): 5; Log10 Reduction Anaerobes (Desulfovibrio vulgaris; contact time 4 hours): 6
CCCCCCCCCCCCCC[P+](CCCC)(CCCC)CCCC.[Cl-] [Example 17, tri n-butyl n-tetradecyl phosphonium chloride]	–	–	5	6	–
CCCCCCCCCCCCCC[P+](CCCC)(CCCC)CCCC.[Cl-] [Example 18, tri n-butyl n-tetradecyl phosphonium chloride]	–	–	8	6	–
